Assay results as given in patent US12622917B2, “High-activity Wnt pathway inhibitor compound” (ADLAI NORTYE BIOPHARMA CO., LTD., priority 2020, dated 2026).
Where two headings read alike, the source gives them in different places.

Key:
[1] = test system: Colo205-LUC-TCF/LEF M1 reporter cell line (Wnt pathway); assay: Colo205-LUC-TCF/LEF M1 reporter gene (luciferase) inhibition; format: cell-based; settings: 4 hours incubation, luciferase readout
In short: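 Luminescent readout of TCF/LEF-regulated luciferase after a 4 h, 37° C compound exposure in a stable Colo205 reporter clone (10,000 cells/well). Serial 3-fold dilutions started at 20 uM; IC50 derived using DMSO-treated cells and no-cell wells as controls.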

RKO = assay: Proliferation inhibition, non-Wnt mutant control cell line RKO; format: cell-based; settings: Wnt-independent control cell line, 96 hours, read-out: Antiproliferative IC50 RKO
In short: (§1)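 IC50 for growth inhibition came from a 96-hour incubation with serially diluted compound (3-fold, top 20 uM final), with cells seeded at 1000 per well the day before and read by a Promega viability assay.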

Hela = assay: Proliferation inhibition, non-Wnt mutant control cell line Hela; format: cell-based; settings: Wnt-independent control cell line, 96 hours, read-out: Antiproliferative IC50 Hela
Text: The cell lines used in the experiment are Colo205 and DU4475 cell lines whose Wnt pathway is continuously activated and whose proliferation is Wnt pathway-dependent; while the BELA and RKO cell lines, whose Wnt pathway is not activated under normal circumstances and the proliferation is independent of Wnt pathway, as control cell lines. It is Judged that the inhibitory effect of the compound of the present invention on Wnt-dependent proliferation is not caused by other non-specific toxicity.
Treat the Colo205, Du4475, HELA and RKO cell lines cultured in their respective mediums in the logarithmic growth phase, collect the cells and prepare a uniform cell suspension of known concentration, and then add it to the 96-well cell culture plate Cell suspension, so that each well contains 1000 cells. Put it into a 5% CO2 incubator and incubate at 37° C. for 20-24 h. On the second day, the fully dissolved, 3-fold serially diluted compound was added to each cell culture well, so that the final maximum concentration in the cell culture well was 20 uM, and the culture was continued for 96 hours. In this test, Promega's cell viability detection test is used for detection. The more the cells proliferate, the stronger the final signal intensity will be. The detection instrument is SpectraMax, full wavelength mode. The wells only added with DMSO were used as positive control wells, and the wells that were not inoculated with cells were used as negative control wells. […] The IC50 value of cell proliferation inhibition was used to evaluate the inhibitory effect of the compound on the Wnt pathway and the toxic effect on normal cells (Table 2).

Colo205 = assay: Proliferation inhibition, Wnt mutant cell line Colo205; format: cell-based; settings: Colo205, Wnt pathway-dependent, 96 hours, read-out: Antiproliferative IC50 Colo205
In short: as §1

DU4475 = assay: Proliferation inhibition, Wnt mutant cell line DU4475; format: cell-based; settings: DU4475, Wnt pathway-dependent, 96 hours, read-out: Antiproliferative IC50 DU4475
In short: as §1

HepG2 = assay: Proliferation inhibition, HepG2 cell line; format: cell-based; settings: Homo sapiens; HepG2 cells, 96 hours culture, cell viability detection; read-out: Antiproliferative IC50 HepG2
In short: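 Wnt-dependent proliferation in HepG2 and NCI-H929 cells, seeded at 4000 cells/well and pre-incubated 20-24 h at 37 °C. Cells were then exposed for 96 h to 3-fold serial dilutions (top final concentration 20 uM), and viability was read by signal intensity. IC50 was referenced to DMSO-only wells and cell-free wells.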

NCI-H929 = assay: Proliferation inhibition, NCI-H929 cell line; format: cell-based, human; settings: Homo sapiens; NCI-H929 cells, 96 hours culture, cell viability detection; read-out: Antiproliferative IC50 NCI-H929
Text: The cell lines used in the test are NCI-H929 and HepG2 cell lines whose Wnt pathway is continuously activated and whose proliferation is Wnt pathway-dependent; the inhibitory effect of the compound of the present invention on Wnt-dependent proliferation is judged.
Treat the NCI-H929 and HepG2 cell lines cultured in their respective mediums in the logarithmic growth phase, collect the cells and prepare a uniform cell suspension of known concentration, and then add the cell suspension to the 96-well cell culture plate solution so that each well contains 4000 cells. Put it into a […] incubator and incubate at 37° C. for 20-24 h. On the second day, the fully dissolved, 3-fold serially diluted compound was added to each cell culture well, so that the final maximum concentration in the cell culture well was 20 uM, and the culture was continued for 96 hours. In this test, Promega's cell viability detection test is used for detection. The more the cells proliferate, the stronger the final signal intensity will be. The detection instrument is SpectraMax, full wavelength mode. The wells only added with DMSO were used as positive control wells, and the wells that were not inoculated with cells were used as negative control wells. […] The IC50 value of cell proliferation inhibition was used to evaluate the inhibitory effect of the compound on the Wnt pathway and the toxic effect on normal cells (Table 3).

Row | Compound | IC50 [1] | IC50 (Hela; Homo sapiens) | IC50 (Colo205; Homo sapiens, COLO 205) | IC50 (Hela) | IC50 (Colo205) | IC50 (HepG2) | IC50 (NCI-H929) | IC50 (RKO; Homo sapiens) | IC50 (DU4475; Homo sapiens, DU-4475) | IC50 (RKO) | IC50 (DU4475)
1 | C[C@H]1C(=O)N2CCCc3nc(NCc4cnn(CCCC(F)(F)F)c4)nc(c32)N1C [93 (W223)] | – | > 10000 nM | 89 nM | – | – | – | – | > 10000 nM | 79 nM | – | –
2 | C[C@H]1Cn2ccc3nc(NCc4ccc(Oc5ccc(C(F)(F)F)nc5)cc4)nc(c32)N1C [78 (W87)] | 28 nM | 914 nM | 27.8 nM | – | – | – | – | 1420 nM | 26.3 nM | – | –
3 | C[C@H]1C(=O)N2CCCc3nc(NCc4ccc(Oc5cncc(C(F)(F)F)c5)nc4)nc(c32)N1C [99 (W193)] | 27 nM | > 10000 nM | 12 nM | – | – | – | – | > 10000 nM | 21 nM | – | –
4 | C[C@H]1Cn2ccc3nc(NCc4ccc(OCCOCC(F)(F)F)nc4)nc(c32)N1C [79 (W95)] | 20 nM | 3670 nM | 43.9 nM | – | – | – | – | 6890 nM | 23.7 nM | – | –
5 | (S)-6,7-dimethyl-4-(((1-((6-(trifluoromethyl)pyridin-3-yl)methyl)-1H-pyrazol-4-yl)methyl)amino)-7,8-dihydro-3,5,6,9a-tetraazabenzo[cd]azulene-9(6H)-one [Example 6] | 57 nM | – | – | > 10000 nM | 46 nM | – | – | – | – | > 10000 nM | 59 nM
6 | C[C@H]1CN(C2CC2)c2nc(NCc3cnn(Cc4ccc(C(F)(F)F)nc4)c3)nc3ccn1c23 [90 (W152)] | 24 nM | > 10000 nM | 42 nM | – | – | – | – | 5660 nM | 37 nM | – | –
7 | Cc1cn2c3c(nc(NCc4cnn(Cc5ccc(F)cc5)c4)nc13)N(C)[C@@H](C)C2 [65 (W32)] | 20 nM | 3490 nM | 43.5 nM | – | – | – | – | 1720 nM | 41.7 nM | – | –
8 | COC[C@H]1[C@@H](C)n2ccc3nc(NCc4cnn(Cc5ccc(C(F)(F)F)nc5)c4)nc(c32)N1C [88 (W140)] | 22 nM | > 10000 nM | – | – | – | – | – | > 10000 nM | – | – | –
9 | COC[C@H]1Cn2ccc3nc(NCc4ccc(C(F)(F)F)nc4)nc(c32)N1C [86 (W135)] | 38 nM | > 10000 nM | 79 nM | – | – | – | – | > 10000 nM | – | – | –
10 | C[C@H]1C(=O)N2CCCc3nc(NCc4ccc(Cn5ccc(C(F)(F)F)n5)nc4)nc(c32)N1C [92 (W232)] | – | > 10000 nM | 81 nM | – | – | – | – | > 10000 nM | 80 nM | – | –
11 | CN1c2nc(NCc3ccc(Oc4cnc(C(F)(F)F)nc4)nc3)nc3c2N(CCC3)C(=O)C1(C)C [177 (W297)] | 21 nM | – | 16.1 nM | – | – | 25 nM | 56 nM | > 10000 nM | 1.2 nM | – | –
12 | CN1c2nc(NCc3ccc(Oc4ccc(C(F)(F)F)nc4)nc3)nc3c2N(CCC3)C(=O)C1(C)C [176 (W296)] | 20 nM | – | 5.6 nM | – | – | 27 nM | 40 nM | > 10000 nM | 3.8 nM | – | –

Continued, in another order:

Row | IC50 [1] | IC50 (Hela; Homo sapiens) | IC50 (Colo205; Homo sapiens, COLO 205) | IC50 (Hela) | IC50 (Colo205) | IC50 (HepG2) | IC50 (NCI-H929) | Compound | IC50 (RKO; Homo sapiens) | IC50 (DU4475; Homo sapiens, DU-4475) | IC50 (RKO) | IC50 (DU4475)
13 | 19 nM | > 10000 nM | 44 nM | – | – | – | – | COC[C@H]1CN(C)c2nc(NCc3cnn(Cc4ccc(C(F)(F)F)nc4)c3)nc3cc(C)n1c23 [Example 25, (R)-6-(methoxymethyl)-4,8-dimethyl-N-((1-((6-(trifluoromethyl)pyridin-3-yl)methyl)-1H-pyrazol-4-yl)methyl)-5,6-dihydro-4H-pyrrolo[3,2,1-de]pteridin-2-amine] | > 10000 nM | 50 nM | – | –
14 | 11 nM | > 10000 nM | 16 nM | – | – | – | – | CC(C)N1C[C@H](C)n2ccc3nc(NCc4cnn(Cc5ccc(C(F)(F)F)nc5)c4)nc1c32 [Example 23, (S)-4-isopropyl-6-methyl-N-((1-((6-(trifluoromethyl)pyridin-3-yl)methyl)-1H-pyrazol-4-yl)methyl)-5,6-dihydro-4H-pyrrolo[3,2,1-de]pteridin-2-amine] | 3380 nM | 15 nM | – | –
15 | 17 nM | > 10000 nM | 33.4 nM | – | – | – | – | C[C@H]1Cn2ccc3nc(NCc4cnn(CCCC(F)(F)F)c4)nc(c32)N1C [81 (W105)] | > 10000 nM | 19.3 nM | – | –
16 | 7 nM | > 10000 nM | 4.8 nM | – | – | – | – | [2H]c1cc2nc(NCc3cnn(Cc4ccc(C(F)(F)F)nc4)c3)nc3c2n1C[C@H](C)N3C [72 (W57)] | 3230 nM | 2.8 nM | – | –
17 | 20 nM | > 10000 nM | 13.5 nM | – | – | – | – | CN1c2nc(NCc3cnn(Cc4ccc(C(F)(F)F)nc4)c3)nc3ccn(c23)C[C@@H]1CO [71 (W56)] | > 10000 nM | 16.7 nM | – | –
18 | 14 nM | 7200 nM | 13.3 nM | – | – | – | – | C[C@H]1Cn2ccc3nc(NCc4cnn(Cc5ccc(F)cc5)c4)nc(c32)N1CCO [62 (W13)] | 6540 nM | 13.5 nM | – | –
19 | 12 nM | 1410 nM | 13.1 nM | – | – | – | – | C[C@H]1Cn2ccc3nc(NCc4cnn(Cc5ccc(C(F)(F)F)nc5)c4)nc(c32)N1CC(F)(F)F [70 (W55)] | 1730 nM | 13.1 nM | – | –
20 | 2 nM | 4170 nM | 5.5 nM | – | – | – | – | C[C@H]1Cn2ccc3nc(NCc4cnn(Cc5ccc(F)cc5)c4)nc(c32)N1C [61 (W2)] | 3440 nM | 11.8 nM | – | –
21 | 17 nM | 4760 nM | 41 nM | – | – | – | – | CN1c2nc(NCc3cnn(CC(F)(F)F)c3)nc3ccn(c23)CC1(C)C [84 (W123)] | 5540 nM | 36 nM | – | –
22 | 10 nM | 5510 nM | 39 nM | – | – | – | – | C[C@H]1Cn2ccc3nc(NCc4ccc(OCc5ccccc5)cc4)nc(c32)N1C [74 (W69)] | 1690 nM | 46 nM | – | –
23 | 10 nM | 4900 nM | 5.1 nM | – | – | – | – | C[C@H]1Cn2ccc3nc(NCc4cnn(CC5CCC(F)(F)CC5)c4)nc(c32)N1C [83 (W116)] | 7470 nM | 5.1 nM | – | –
24 | 16 nM | – | 15 nM | – | – | 11 nM | 41 nM | C[C@@H](F)[C@H]1C(=O)N2CCCc3nc(NCc4ccc(Oc5ccc(C(F)(F)F)nc5)nc4)nc(c32)N1C [149 (W285)] | > 10000 nM | 2.9 nM | – | –
25 | 11 nM | – | 4.9 nM | – | – | 16 nM | 22 nM | [2H]C([2H])([2H])N1c2nc(NCc3ccc(Oc4cnc(C(F)(F)F)nc4)nc3)nc3c2N(CCC3)C(=O)[C@@H]1CC [162 (W270)] | > 10000 nM | < 0.5 nM | – | –
26 | 4 nM | – | 1.4 nM | – | – | 1.2 nM | 24 nM | [2H]C([2H])([2H])N1c2nc(NCc3ccc(Oc4cnc(C(F)(F)F)nc4)nc3)nc3c2N(CCC3)C(=O)[C@@H]1CC(F)(F)F [193 (W342)] | > 10000 nM | < 0.5 nM | – | –
